The results in this text go back to article PMC3731320, “Identification of Benzimidazole Diamides as Selective Inhibitors of the Nucleotide-Binding Oligomerization Domain 2 (NOD2) Signaling Pathway” (PLoS ONE, 2013).

What all share (type): cell-based, human
One assay relates to TLR2. Briefly: Pam2CSK4-stimulated IL-8 release in 293/hTLR2 cells. As to conditions: read-out: IC50 293/hTLR2 Pam2CSK4, IL-8 end-point, 3–10 ng/mL Pam2CSK4. The procedure: (§1) After 24 hours the amount of IL-8 secreted into the medium was determined by homogeneous time resolved fluorescence (HTRF) assay by the direct addition of a 1:1 mix of europium cryptate and XL665-conjugated anti-IL-8 antibodies according to the manufacturer's instructions (Cisbio).

Assay [1] relates to NOD2. Briefly: MDP-stimulated IL-8 release in HCT116 cells (endogenous NOD2). The procedure:
(§2) Compound activity on endogenous NOD1 and NOD2 receptors was determined by inhibition of either Tri-DAP or MDP-stimulated IL-8 release, respectively, using HCT116 human colon carcinoma cells. […] The cells were maintained in DMEM high glucose medium supplemented with 25 mM HEPES and 10% FBS. For assay, cells were seeded into 96 well plates (90,000 cells/well) in DMEM containing 1% FBS and pre-incubated with compounds for 1 hour before addition of either 1 μg/mL MDP or 25 μg/mL Tri-DAP. The level of IL-8 released into medium after 24-hour incubation was determined by HTRF assay as described above and fluorescence measured on an Envision model 2102 multilabel plate reader (Perkin Elmer).

Assay [2] has as its system NOD1. In words: Tri-DAP-stimulated IL-8 release in HCT116 cells (endogenous NOD1). The procedure: as §2
The subject of assay [3] is NOD1. In words: iE-DAP-stimulated IL-8 release in 293/hNOD1 cells (HTRF). As to conditions: 60 ng/mL iE-DAP. The procedure:
as §1
For orientation: In TR-FRET formats the signal depends on donor and acceptor labels being close together.

The subject of assay [4] is NOD2. In words: IL-8 secretion induced by NOD2 over-expression (BacMam) in HEK293T cells, activator-independent. As to the method: Over-expression of NOD1 and NOD2 was achieved by transduction of HEK293T cells with either NOD1 or NOD2 BacMam recombinant baculoviruses. […] The effect of compounds on activator-independent NOD1/2 signaling was determined by 30 minute pre-treatment of cells (in 96-well plates seeded the previous day in DMEM high glucose with 10% FBS at 60,000 cells/well) followed by infection with NOD1 or NOD2 BacMam virus (MOI = 50). IL-8 was measured in conditioned medium after 24 hour incubation at 37 °C. To determine the effect of compounds on NOD1/2 activator-dependent IL-8 secretion in BacMam transduced HEK293T, the cells were infected with virus for 6 hours (MOI = 50), and following the removal of virus the cells were cultured over-night. The next day medium was again replaced and cells pre-treated with compound for 30 minutes followed by stimulation with either MDP (30 ng/mL) or iE-DAP (300 ng/mL). IL-8 was measured in conditioned medium by HTRF after 24-hour incubation at 37 °C.

A further assay deals with TNFR1. Briefly: TNFα-stimulated (TNFR1-induced) IL-8 release in 293/hNOD2 cells. As to conditions: read-out: IC50 293/hNOD2 TNFα, IL-8 end-point, 20 ng/mL rhTNFα. As to the method: as §1

Like-named read-outs stand apart in the source and are kept apart here. Where only a bound is given, the exact number is not on record here.

`O=C(Cn1c(CCNC(=O)c2ccccc2)nc2ccccc21)Nc1ccc2c(c1)CCC2` [Compound 1, N-(2-(1-(2-((2,3-dihydro-1H-inden-5-yl)amino)-2-oxoethyl)-1H-benzo[d]imidazol-2-yl)ethyl)benzamide]: the IC50 is more than 30 µM in the assay on TLR2 (listed as GSK669); more than 80 µM with TLR2 (listed as GSK669 (1)); 0.5 ± 0.2 µM in the assay on NOD2 [1] (Homo sapiens, HCT-116, IL-8 end-point, 1 μg/mL MDP); more than 50 µM in the assay on NOD1 [2] (Homo sapiens, HCT-116, IL-8 end-point, 25 μg/mL Tri-DAP); more than 30 µM with NOD1 [3] (Homo sapiens, read-out: IC50 293/hNOD1 iE-DAP, IL-8 end-point); more than 50 µM in the assay with NOD1 [3] (read-out: IC50 293/hNOD1 iE-DAP, IL-8 end-point, listed as GSK669 (1)). In addition, the IC50 in the assay on TNFR1 (listed as GSK669) was more than 30 µM; in the assay with TNFR1 (listed as GSK669 (1)), more than 100 µM. Further, in the assay on NOD2 [1] (MDP 1 μg/mL, 1 hour pre-treatment), the “effect on IL-8 secretion induced by MDP in HCT116 cells” value is “dose-dependently inhibited”. For the same molecule, the “effect on IL-8 secretion induced by Tri-DAP in HCT116 cells” value with NOD1 [2] (Tri-DAP 25 μg/mL, 1 hour pre-treatment) is on record as “had no effect”. The “effect on IL-8 secretion induced by NOD2 virus alone, single concentration” value in the assay with NOD2 [4] (MOI 50, 24 hours, GSK669 5 μM, IKK inhibitor 0.5 μM) is on record as “failed to block IL-8 secretion”. Further, the “effect on IL-8 secretion induced by NOD2 over-expression” value with NOD2 [4] (NOD2 virus 24 hours, GSK669 up to 50 μM) is “failed to inhibit this response”.
